Counter-ions that a name gives are not always drawn.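 All cell lines were grown in 96-well plates and treated with compound for 48 hours. Abbreviation: GI50, concentration required for 50% inhibition of growth.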 Activity calls are given as the source filed them. No stated cut-off is given here; in the data, active = GI50 up to about 1.1 µM and inactive = higher. Where only a bound is given, the exact number is not on record here.

Among the test systems are TK-10; K562; HL-60; SK-MEL-2; UO-31; PC-3; OVCAR-5; A498; SF-268; U-251; SK-OV-3; DU-145; IGROV-1; A549; HCC 2998; M14; SF-295; SN12C; DLD-1.
Common to all, as to test: DTP human tumour cell line panel, 48 h

As for `Cc1ccc(C2SCc3nc4ccccc4n32)cc1` (stereo not given), the GI50 – broadly, the concentration giving 50% growth inhibition – in the assay with TK-10 is 3.54 µM (inactive); with K562 it was 0.671 µM (active); with HL-60 it was 1.6 µM (inactive); with SK-MEL-2, 1.1 µM (active); with UO-31, 5.36 µM (inactive); in the assay on PC-3 it was 1.88 µM (inactive). The GI50 is 6.46 µM (inactive) in the assay on OVCAR-5; 3.15 µM (inactive) in the assay with A498; 11.7 µM (inactive) with SF-268; 5.87 µM (inactive) in the assay on U-251; 7.8 µM (inactive) with SK-OV-3; 4.29 µM (inactive) in the assay on DU-145. Also, the GI50 in the assay on IGROV-1 is 3.18 µM (inactive); in the assay on A549, 6.43 µM (inactive); in the assay on HCC 2998, 10.8 µM (inactive); in the assay on M14, 4.49 µM (inactive); with SF-295 it was 2.19 µM (inactive); in the assay on SN12C, 3.01 µM (inactive).
As for `O=C(O)CNc1c2ccccc2nc2ccccc12`, the GI50 in the assay with TK-10 is > 100 µM (inactive); in the assay with K562, > 100 µM (inactive); in the assay on HL-60, 48.2 µM (inactive); with SK-MEL-2, > 100 µM (inactive); in the assay with DLD-1, > 100 µM (inactive); in the assay on UO-31 it was 50.6 µM (inactive). The GI50 in the assay with OVCAR-5, in the assay on SF-268, in the assay on U-251, with SK-OV-3, in the assay on IGROV-1 and in the assay on A549 was > 100 µM (inactive) in each case. In addition, the GI50 in the assay with HCC 2998, in the assay with M14, with SF-295 and in the assay with SN12C was > 100 µM (inactive) each time.
In the case of `Cc1cc(=O)oc2cc(OC(=O)Nc3ccc(Cl)c(Cl)c3)ccc12`, the GI50 in the assay with TK-10 is 34.9 µM (inactive); with K562 it was 10.9 µM (inactive); with HL-60, 18.5 µM (inactive); in the assay with SK-MEL-2 it was 21.6 µM (inactive); in the assay on UO-31, 27.4 µM (inactive); in the assay with PC-3 it was 22.5 µM (inactive). The GI50 in the assay on OVCAR-5 is 20.4 µM (inactive); in the assay on A498 it was 14.2 µM (inactive); in the assay with SF-268, 38 µM (inactive); in the assay on U-251 it was 20.4 µM (inactive); in the assay with SK-OV-3, 36.4 µM (inactive); in the assay with DU-145 it was 25.3 µM (inactive). In addition, the GI50 was 20.2 µM (inactive) in the assay with IGROV-1; 24.8 µM (inactive) in the assay with A549; 19.4 µM (inactive) in the assay on HCC 2998; 22.6 µM (inactive) with M14; 20.9 µM (inactive) in the assay with SF-295; 25.3 µM (inactive) in the assay with SN12C.
On to `CC[C@]12CN3CCc4c([nH]c5ccccc45)[C@@](C(=O)OC)(c4cc5c(cc4OC)N(C)[C@H]4[C@@](O)(C(=O)OC)[C@H](OC(C)=O)[C@]6(CC)C=CCN7CC[C@]54[C@@H]76)CC(C3)[C@H]1O2` (stereo not given in full) [VINLEUROSINE SULFATE], for which the GI50 is > 47.5 µM (inactive) in the assay with TK-10; < 0.01 µM (active) with K562; < 0.01 µM (active) in the assay on HL-60; 0.0968 µM (active) in the assay with SK-MEL-2; 5.57 µM (inactive) with UO-31; 0.134 µM (active) in the assay with PC-3. In addition, the GI50 with OVCAR-5 was 0.804 µM (active); in the assay on A498, 0.863 µM (active); in the assay on SF-268, 1.02 µM (active); in the assay with U-251, < 0.0179 µM (active); in the assay with SK-OV-3 it was 0.12 µM (active); with DU-145 it was < 0.01 µM (active). Besides, the concentration for 50% growth inhibition (GI50) is 0.441 µM (active) in the assay on IGROV-1; 0.394 µM (active) in the assay with A549; < 0.01 µM (active) with HCC 2998; 0.171 µM (active) in the assay on M14; 0.0401 µM (active) in the assay with SF-295; < 0.01 µM (active) in the assay on SN12C.

(Values after ChEMBL document CHEMBL1201862, “PubChem BioAssay data set” (2004).)
